Data from US11072637B2, “Walnut oligopeptide powder, preparation method and application thereof” (Sinphar Tian-Li (Hangzhou) Pharmacy Company Limited, priority 2016, dated 2021).

Legend:
Assay type in all cases: biochemical
Details in all cases: 100 μg/mL
[1] = SRSA superoxide anion free radical scavenging experiment
Description: 3. SRSA Superoxide Anion Free Radical Scavenging Experiment: 3.1 Preparation of 0.1 moL/L PBS buffer solution (pH 7.4): 80 g of sodium chloride, 2 g of potassium chloride, 2.4 g of monopotassium phosphate and 23.1 g of dipotassium hydrogen phosphate trihydrate were weighted and placed in 1000 ml beaker, adding 600 ml of distilled water, stirring to dissolve, and adjusting the pH to […] with hydrochloric acid or sodium hydroxide, transferring into 1000 ml volumetric flask, adding distilled water to dilute to the scale, shaking evenly, and standing for later use. […] 3.7 Operation steps: accurately sucking 0.5 ml of test solution and 5 ml of the working solution, and uniformly mixing; accurately sucking 0.5 ml of test solution and 5 ml of distilled water, and uniformly mixing; accurately sucking 5 ml of the working solution and 0.5 ml of distilled water, and uniformly mixing, the absorbance was determined immediately at 560 nm, and the free radical scavenging rate was calculated according to the following formula: IR%=[1−(Ai−Aj)/A0]*100%; in which, Ai represents the absorbance of the mixture of the test solution and […], Aj represents the absorbance of the mixture of the test solution and the solvent; and A0 represents the absorbance of the mixture of SRSA and solvent. […]

[2] = DPPH free radical scavenging experiment
Description: 1. DPPH Free Radical Scavenging Experiment: 1.1 Preparation of DPPH ethanol solution: precisely weighing 4 mg of […], putting into a 100 ml brown volumetric flask, and adding 50 ml of ethanol, the ultrasonic treatment was carried out for 30 seconds, ethanol was used for fixing the volume to scale, shaking, and the product needs to be freshly prepared when needed. 1.2 Preparation of test solution: precisely weighing 10 mg of walnut oligopeptide powder, and putting into a 50 ml brown volumetric flask, adding 30 ml of ethanol, carrying out ultrasonic treatment for 5 minutes, diluting with ethyl alcohol for fixing the volume to scale, and shaking. […]

[3] = ABTS+ free radical scavenging experiment
Description: 2. ABTS^+ Free Radical Scavenging Experiment: 2.1 Preparation of PBS buffer solution: weighing 8 g of sodium chloride, 0.2 g of potassium chloride, 0.24 g of monopotassium phosphate, and 3.62 g of disodium hydrogen phosphate dodecahydrate and putting them into a 1000 ml beaker, adding 800 ml of distilled water, stirring to dissolve, and adjusting the pH value to 7.4 by using hydrochloric acid or sodium hydroxide, transferring into a 1000 ml volumetric flask, adding distilled water to dilute, shaking evenly, and standing for later use. […] 2.5 Operation steps: accurately sucking 0.5 ml of test solution and 5 ml of ABTS working solution, and mixing uniformly; accurately sucking 0.5 ml of test solution and 5 ml of PBS buffer solution, and mixing uniformly; accurately sucking 5 ml of ABTS working solution and 0.5 ml of PBS buffer solution, and mixing uniformly, the absorbance was measured immediately at 734 nm, and the free radical removal rate was calculated according to the following formula: IR%=[1−(Ai−Aj)/A0]*100%; in which, Ai represents the absorbance of the mixture of the test solution and ABTS, Aj represents the absorbance of the mixture of the test solution and solvent, and A0 represents the absorbance of the mixture of ABTS and solvent. […]

In the case of `O=C1O[C@H]([C@@H](O)CO)C(O)=C1O` [Vitamin C], the “SRSA scavenging rate %” value [1] is reported as 80.1%, the “DPPH scavenging rate %” value [2] is reported as 97.2% and the “ABTS^+ scavenging rate %” value [3] is reported as 98.1%.
